Measurements published in US8518942B2, “Caspase inhibitors and uses thereof” (Buck Institute for Research on Aging, priority 2008, dated 2013).

What was measured:
[1] = molecular target: T1, caspase-2 (Homo sapiens, UniProt P42575); test: Irreversible inhibitor kinetic assay (progress curve), caspase-2, substrate Ac-VDVAD-AMC; type: biochemical; conditions: casp-2; duplicate, SD included
T1 sequence (P42575 170-325 limits assumed): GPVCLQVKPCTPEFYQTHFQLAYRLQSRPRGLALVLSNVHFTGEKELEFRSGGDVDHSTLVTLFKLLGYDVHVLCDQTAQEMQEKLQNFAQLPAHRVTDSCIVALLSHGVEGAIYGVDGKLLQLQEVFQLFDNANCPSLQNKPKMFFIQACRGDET
T1 sequence (P42575 348-452 limits assumed): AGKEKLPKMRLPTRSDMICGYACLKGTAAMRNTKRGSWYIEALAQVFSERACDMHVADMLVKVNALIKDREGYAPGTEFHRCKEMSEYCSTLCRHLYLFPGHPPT
From the text: (§1) Caspases-3, -6, -7, -8, and -9 were provided by Guy Salvesen's laboratory at the Burnham Institute (La Jolla, Calif.). Caspase-1 was purchased from EMD Biosciences (San Diego, Calif.) and Caspase-2 was purchased from Biomol International (Plymouth Meeting, Pa.). Caspase substrates Ac-DEVD-AMC, Ac-VDVAD-AFC, and Ac-LEHD-AFC were purchased from EMD Biosciences (San Diego, Calif.) and Ac-VDVAD-AMC was purchased from Biomol International (Plymouth Meeting, Pa.). The proteolytic cleavage of N-acyl aminocoumarins by caspases was conducted in Dynatech Microfluor fluorescence 96-well microtiter plates, and readings were taken on a Molecular Devices Spectra Max Gemini XS instrument. The excitation wavelength was 370 nm and the emission wavelength was 455 nm for AMCA substrates, the excitation wavelength was 355 nm and the emission wavelength was 450 nm for peptidyl AMC substrates, and the excitation wavelength was 430 nm and the emission wavelength was 535 nm for peptidyl AFC substrates.
(§2) The kinact/Ki for inhibitors were determined under pseudo-first order conditions using the progress curve method (Eckici et al. (2006) J. Med. Chem., 49: 5728-5749; Bieth (1995) Meth. Enzymol., 248: 59-84). Assay wells contained a mixture of inhibitor and AMC or AFC substrate in buffer. Aliquots of caspase were added to each well to initiate the assay. Hydrolysis of the AMC or AFC substrate was monitored fluorometrically for 45 min. To determine the inhibition parameters, time points for which the control ([I]=0) was linear were used. For each inhibitor, a kobs was calculated for at least four different concentrations of inhibitors via a nonlinear regression of the data according to the equation P=(vi/kobs)[1−exp(−kobst) (where product formation=P, […], and the first-order rate constant=kobs). If kobs varied linearly with [I], then the association constant kass was determined by linear regression analysis using kobs=(kass[I])/(1+[S]/Km) where [S] is the concentration of the substrate. […] Inhibition was measured in duplicate and the average of is reported. […]

[2] = molecular target: T2, Caspase 3 (Homo sapiens, UniProt P42574); test: Irreversible inhibitor kinetic assay (progress curve), caspase-3, substrate Ac-DEVD-AMC; type: biochemical; parameters: gift: Guy Salvesen's laboratory, Burnham Institute (La Jolla, Calif.); conditions: casp-3; duplicate, SD included
T2 sequence (P42574 29-175 limits assumed): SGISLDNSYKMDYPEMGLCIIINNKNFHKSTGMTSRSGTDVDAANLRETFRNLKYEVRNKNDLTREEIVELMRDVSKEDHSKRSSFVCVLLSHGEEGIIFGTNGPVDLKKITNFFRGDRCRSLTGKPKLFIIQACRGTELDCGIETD
T2 sequence (P42574 176-277 limits assumed): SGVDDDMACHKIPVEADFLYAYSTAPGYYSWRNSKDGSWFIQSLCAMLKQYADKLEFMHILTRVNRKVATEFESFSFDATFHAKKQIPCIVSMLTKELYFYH
From the text: as §1, §2

Row | kass (kinact/Ki, footnote a) [1] | kinact/Ki [2] | SMILES
1 | 33.0 ± 0.5 s^−1/M^−1 | 47,000 ± 1,400 s^−1/M^−1 | C[C@@](NS(=O)(=O)Cc1ccccc1)(c1cn([C@@H](CC(=O)O)C(=O)COc2c(F)c(F)cc(F)c2F)nn1)C1CCCCC1 [MJL-001i]
2 | 2.0 ± 0.1 s^−1/M^−1 | 81,700 ± 6,900 s^−1/M^−1 | C[C@@](NC(=O)CCCC(=O)O)(c1cn([C@@H](CC(=O)O)C(=O)COc2c(F)c(F)cc(F)c2F)nn1)C1CCCCC1 [MJL-002i]
3 | 6.90 ± 0.3 s^−1/M^−1 | 29,850 ± 850 s^−1/M^−1 | C[C@@](NC(=O)Cc1ccccc1)(c1cn([C@@H](CC(=O)O)C(=O)COc2c(F)c(F)cc(F)c2F)nn1)C1CCCCC1 [MJL-003i]
